Results: publication PMC11514582, “Leveraging the Aggregated Protein Dye YAT2150 for Malaria Chemotherapy” (Pharmaceutics, 2024)

System: Caco-2 cells
Assay: Influx and efflux assays in Caco-2 cells with transporter/endocytosis inhibitors
Type: cell-based, human
Conditions: 5 µM, FBS-free medium
Excerpt: The panel of influx and efflux membrane transporters expressed in Caco-2 cells has been previously characterized and, to a great extent, mimics the one described in human intestine. Based upon this information and the established knowledge of the physiology of intestinal transporters, we considered the following as possible YAT2150 influx transporters: Organic Cation Transporters (OCTs), Peptide Transporter 1 (PEPT1), and Organic Anion Transporter Polypeptide 2B1 (OATP2B1). […]
Caco-2 cells were grown in monolayer on a solid support at 37 °C in a humidified atmosphere with 5% CO2 and maintained in DMEM supplemented with 10% FBS, 2 mM L-glutamine, 1% MEM non-essential amino acids, 20 U/mL penicillin, and 20 µg/mL streptomycin (Life Technologies, Carlsbad, CA, USA). To identify YAT2150 influx and efflux mechanisms in Caco-2 cells, YAT2150 intracellular accumulation was determined by measuring its fluorescent emission at 610 nm under various experimental conditions as follows. A total of 50,000 cells/well were seeded in MW24 plates, and 24 h after seeding, YAT2150 influx and efflux were determined either in the presence or absence of FBS. […] Then, cells were washed with PBS, and intracellular YAT2150 was determined (see below). […] In parallel, emitted fluorescence was measured in an iBright Imaging System and quantified by iBright Analysis Software 5.3.0 (Thermo Fisher Scientific, Inc.). […]

CCN(CC)c1ccc(/C=C/c2cc[n+](CCCCCCCCCC[n+]3ccc(/C=C/c4ccc(N(CC)CC)cc4)c(C)c3)cc2C)cc1 [YAT2150]
efflux route in Caco-2 cells (with efflux inhibitors): OSTα/β transporters mediated YAT2150 efflux
influx route in Caco-2 cells (with influx inhibitors): mainly internalized by endocytosis and also through the OATP2B1 transporter
